In brackets after ≈: the same amount, converted by molar mass.

The conditions of the data set: buffer; pH 7.4; 200.0 µM.
Broadly, the solubility (kinetic) is the concentration staying in solution when a stock, usually in DMSO, is diluted into the medium. As for `O=S(=O)(Nc1nc2ccccc2s1)c1ccc(Cl)nc1`, the solubility (kinetic) was more than 48.9 µg/mL. Then `O=C(c1cc([N+](=O)[O-])cc([N+](=O)[O-])c1)N1CCN(C(=O)c2ccco2)CC1`, with 54 µg/mL (≈ 144 µM); and `CC(C)c1ccc(S(=O)(=O)N2CCN(C(=O)C3=COCCO3)CC2)cc1`, with 18.3 µg/mL (≈ 48.1 µM). Then `COc1ccccc1CNCc1ccc(OC)c2ccccc12`, with 33.7 µg/mL (≈ 110 µM); and `c1ccc(OCCCCN2CCCCC2)cc1`, with 29.6 µg/mL (≈ 127 µM). In turn, `COCC(C)Nc1ccc(S(=O)(=O)N2CCCC2)cc1[N+](=O)[O-]` (centres undefined) yielded a kinetic solubility of 44.2 µg/mL (≈ 129 µM). Then `N#Cc1cc([N+](=O)[O-])ccc1NC(=O)COC(=O)c1cnccn1`, with more than 49.1 µg/mL; and `CC1SCC(=NOCc2c(Cl)cccc2Cl)CS1` (centres undefined), with less than 0.7 µg/mL. Then `NC(=O)C1CCCN(S(=O)(=O)c2ccc3ccccc3c2)C1` (centres undefined), with 13.1 µg/mL (≈ 41.1 µM). Then `CCOC(=O)/C=C1\SCC(=O)N1CC(=O)N1CCOCC1`, with more than 47.2 µg/mL; and `Cc1cc(-c2cccc(Br)c2)c(C#N)c(N)n1`, with 3.1 µg/mL (≈ 10.8 µM).

Compound `O=[N+]([O-])c1ccc(N2CCOCC2)cc1O` gave a solubility (kinetic) of more than 33.6 µg/mL.

`CC1CCc2c(sc(NC(=O)COC(=O)C3CCCO3)c2C#N)C1` (centres undefined) came in with a kinetic solubility of 34.2 µg/mL (≈ 98.2 µM).

Take `CCC(Oc1ccccc1)C(=O)Nc1ccccc1N1CCCC1` (centres undefined): the solubility (kinetic) was 7.9 µg/mL (≈ 24.4 µM). Compound `Cc1ccc(Cl)c(OCCN2CCc3ccccc3C2)c1.Cl` had a kinetic solubility of 4.4 µg/mL. Then `Cc1nc2ccc(NC(=O)C3COc4ccccc4O3)cc2s1` (centres undefined), with 30.9 µg/mL (≈ 94.7 µM). Under `COc1ccc(NC(=O)c2cccnc2)cc1OCC(C)C` stands 27.2 µg/mL (≈ 90.6 µM); under `COc1ccc(S(=O)(=O)N2CCOCC2)cc1NC(=O)CSc1ncccn1`, 13.8 µg/mL (≈ 32.5 µM). Then `COc1ccccc1NC(=O)c1cc([N+](=O)[O-])ccc1N1CCOCC1`, with 31.2 µg/mL (≈ 87.3 µM); and `CN=C(C)/C(C(=O)OC)=C(/O)c1c(F)cccc1F`, with 25.9 µg/mL (≈ 96.2 µM). The compound `Cc1ccccc1CN(c1ccc(C(=O)N2CCN(C)CC2)cc1)S(C)(=O)=O` registered a kinetic solubility of more than 60.2 µg/mL. Under `C=CCn1c(NCc2ccco2)nc2ccccc21` stands more than 38 µg/mL; under `Oc1c(Cl)cc(Cl)cc1CNc1nc2ccccc2[nH]1`, 3.5 µg/mL (≈ 11.4 µM); under `Cc1ccc(C(=O)N2CCCCC2C(=O)O)o1` (centres undefined), more than 35.6 µg/mL. `Cc1ccc(CNC(=O)COC(=O)c2cc(=O)[nH]c3ccccc23)cc1`: the solubility (kinetic) amounted to 5.5 µg/mL (≈ 15.7 µM). Then `NC(=O)N1CCc2ccccc21`, with more than 24.3 µg/mL.

On to `O=S(=O)(Nc1cccnc1Cl)c1ccc(F)cc1`, for which the solubility (kinetic) was more than 43 µg/mL.

The compound `CC(=O)Oc1ccc(-c2nc3c(C)cccc3c(=O)o2)cc1` registered a solubility (kinetic) of 2.9 µg/mL (≈ 9.82 µM).

Consider `CCN(CC)C(=O)c1ccc(O)c(OC)c1`, for which the kinetic solubility was more than 33.5 µg/mL. Then `O=C1CC2(CCCC2)C(=O)N1CN1CCN(S(=O)(=O)c2ccc(F)cc2F)CC1`, with more than 64.1 µg/mL; and `CCC(C)N(C(=O)CSc1nncn1C)C1CCS(=O)(=O)C1` (centres undefined), with more than 52 µg/mL.

Take `O=C(NCC(O)COc1ccc([N+](=O)[O-])cc1)c1ccccc1` (centres undefined): the kinetic solubility was determined as 24.8 µg/mL (≈ 78.4 µM). Then `CCc1nonc1NC(=O)c1oc2cc(C)c(Cl)cc2c1C`, with 0.5 µg/mL (≈ 1.56 µM). For `Cc1ccc(OC(C)C(=O)Nc2ccncc2)cc1` (centres undefined), the kinetic solubility was 31.7 µg/mL (≈ 124 µM). Against the preceding compound, the solubility kinetic is about 63-fold higher.

In turn, `CN(C)S(=O)(=O)c1ccc(C(=O)OCC2COC(C)(C)O2)cc1` (centres undefined) had a kinetic solubility of 48.6 µg/mL (≈ 142 µM).

Regarding `CC(NC(=O)CNC(=O)c1ccco1)c1ccccc1` (centres undefined), the solubility (kinetic) was more than 40.8 µg/mL. In the case of `COc1ccc(-c2noc(CN(C(=O)c3ccoc3C)C(C)C)n2)cc1`, the kinetic solubility worked out at 38.7 µg/mL (≈ 109 µM).

As to `CCc1c(-c2ccccc2)nc2sc3c(c2c1N)CCCC3`, the solubility (kinetic) was less than 0.3 µg/mL.

With `C=C(C)CSc1nc2sc3c(c2c(=O)n1-c1ccc(C)cc1)CCN(C)C3`, the solubility (kinetic) is 25.6 µg/mL (≈ 64.4 µM). Under `CCc1ccccc1NC(=O)NCCN1CCCCC1` stands more than 41.3 µg/mL. Under `NC(=O)COC(=O)CCCSc1nc2ccccc2s1` stands more than 46.6 µg/mL; under `Cc1ccc2c(c1)N(CC(=O)NCC1CCCO1)C(=O)CO2` (centres undefined), more than 45.7 µg/mL. Consider `COc1ccc(N(C)S(=O)(=O)c2c(C)noc2C)c(OC)c1`, for which the kinetic solubility is more than 49 µg/mL. Under `NC(=O)c1cc2cc(Cc3ccccc3Cl)ccc2oc1=O` stands 1.2 µg/mL (≈ 3.82 µM); under `Cc1ccc(C)c(N(CC(=O)NC2CCCC2)S(=O)(=O)c2ccccc2)c1`, less than 0.4 µg/mL. As to `Cc1ccc(C(=O)NCC(=O)NCC(c2cccs2)N(C)C)cc1C` (centres undefined), the solubility (kinetic) is more than 53.9 µg/mL. Under `O=C(COCc1cc(-c2ccco2)on1)NC1CCCCC1` stands 42.4 µg/mL (≈ 139 µM).

As to `Nc1ccc2ccc3cccc[n+]3c2c1.[O-][Cl+3]([O-])([O-])[O-]`, the solubility (kinetic) is more than 44.2 µg/mL.

Compound `COCCNC(=S)NCCc1ccc(Cl)cc1Cl` yielded a kinetic solubility of more than 46.1 µg/mL.

`Cc1cc([N+](=O)[O-])ccc1NC(=O)c1cc2ccccc2o1` registered a solubility (kinetic) of less than 0.3 µg/mL. Under `O=C(CSCc1c(Cl)cccc1Cl)Nc1cccnc1` stands 35.9 µg/mL (≈ 110 µM). Under `O=S(=O)(c1ccc(F)cc1)N1CCCCC1c1cccnc1` (centres undefined) stands more than 48.1 µg/mL; under `Cc1cc(C(=O)NCc2ccccc2F)c2ccccc2n1`, 9.3 µg/mL (≈ 31.6 µM); under `FC(F)(F)c1ccnc(N2CCN(Cc3cnc(-c4ccccc4)[nH]3)CC2)c1`, 26.8 µg/mL (≈ 69.2 µM). Then `Clc1ccc(SCCCN2CCCCC2)cc1.O=C(O)C(=O)O`, with more than 54 µg/mL. Turning to `CC(=O)Nc1cccc(-c2csc(N)n2)c1`, the kinetic solubility is more than 35 µg/mL. Under `Cc1cc2c(NCCc3ccccc3)ncnc2s1.Cl` stands 8.7 µg/mL; under `Cc1noc(C)c1C(=O)OCC(=O)Nc1ncc(C(F)(F)F)cc1Cl`, 16.8 µg/mL (≈ 44.5 µM). Under `Cn1c(=O)c2c(nc(N3CCOCC3)n2CCc2ccccc2)n(C)c1=O` stands 53.9 µg/mL (≈ 146 µM); under `COc1ccc(CCNC(=O)c2cccs2)cc1OC`, 33.8 µg/mL (≈ 116 µM).

On to `CCN(CC)C(=O)Cn1c(=O)oc2ccccc21`, for which the kinetic solubility is more than 37.2 µg/mL. Then `CCC1CCC(N2CCN(c3ccc(F)cc3)CC2)CC1` (centres undefined), with 24.1 µg/mL (≈ 83 µM); and `CCCCn1c(=O)c(C(=O)Nc2ccccc2C)c(O)c2ccccc21`, with less than 0.4 µg/mL; and `O=C(COc1ccccc1/C=C1\SC(=S)NC1=O)Nc1ccc(F)cc1`, with 3 µg/mL (≈ 7.72 µM). Then `CCOP(=O)(OCC)C(Nc1ccccc1)c1cccnc1` (centres undefined), with more than 48 µg/mL. Then `O=C(Nc1cccc(NC(=O)c2cccs2)c1)c1ccc(F)cc1`, with less than 0.4 µg/mL; and `COc1ccc(C2(c3ccc(OC)cc3)NC(=O)NC2=O)cc1`, with more than 46.8 µg/mL. For `O=C1C=C(N2CCCCCC2)C(=O)N1c1ccc(Cl)cc1`, the kinetic solubility came to 8.9 µg/mL (≈ 29.2 µM). Regarding `CN(C)c1ccc(/C=C2\SC(N3CCCCC3)=NC2=O)cc1`, the solubility (kinetic) turned out to be 4.7 µg/mL (≈ 14.9 µM). Against the preceding compound, the solubility kinetic is about 1.9-fold lower. Compound `CC(C)N1CC(COc2ccccc2Cl)OC1=O` (centres undefined) registered a solubility (kinetic) of more than 40.5 µg/mL. Consider `O=C1OCCC1Sc1nnc(-c2ccc(Cl)cc2Cl)o1` (centres undefined), for which the kinetic solubility was more than 49.7 µg/mL.

Compound `C(=C\c1ccncc1)/c1ccccc1` had a solubility (kinetic) of 11.2 µg/mL (≈ 61.8 µM).

As to `O=C(CSc1ncnc2ccccc12)NCc1ccc2c(c1)OCO2`, the kinetic solubility turned out to be 10.1 µg/mL (≈ 28.6 µM). Under `O=C(Nc1nnc(-c2ccco2)o1)c1cccc(N2C(=O)CCC2=O)c1` stands more than 52.8 µg/mL; under `C=CCNC(=S)N1CCc2[nH]c3ccccc3c2C1`, 5.5 µg/mL (≈ 20.3 µM); under `COc1cc(OC)cc(C(=O)NC(c2ccccc2)c2ccccc2)c1`, less than 0.7 µg/mL.

As for `COc1ccc(NC(=O)CSc2nccn2Cc2ccco2)c(OC)c1`, the solubility (kinetic) worked out at 51.9 µg/mL (≈ 139 µM).

As to `COC(=O)CNC(c1ccccc1)c1cc(Br)ccc1N` (centres undefined), the kinetic solubility worked out at 5.5 µg/mL (≈ 15.7 µM).

The compound `CN1CCN(c2ccc([N+](=O)[O-])c(Sc3ccccn3)c2)CC1` returned a kinetic solubility of more than 49.6 µg/mL.

For the compound `O=S(=O)(NCC1CC1)c1ccc(F)c(Cl)c1`, the kinetic solubility was more than 39.6 µg/mL.

As for `O=S(=O)(Nc1cc(F)ccc1F)c1cccc2nonc12`, the kinetic solubility is more than 46.7 µg/mL.

Take `O=C(NC12CC3CC(CC(C3)C1)C2)c1cccc([N+](=O)[O-])c1`: the solubility (kinetic) worked out at 7.3 µg/mL (≈ 24.3 µM).

In turn, `Cc1ccc2[nH]c3c(c2c1)CCCC3NCCO.Cl` (centres undefined) came in with a kinetic solubility of more than 42.1 µg/mL. Under `O=C1CCC(=O)N1OCCOc1ccccc1` stands more than 35.3 µg/mL; under `CN(C(=O)c1ccccc1OCc1ccc(Cl)cc1)c1ccccc1`, 10.7 µg/mL (≈ 30.4 µM).

`O=C(Nc1ccc(Cl)cc1Cl)c1csc(-c2cccnc2)n1` came in with a kinetic solubility of 1.6 µg/mL (≈ 4.57 µM). Then `COc1cccc(NC(=O)c2cnc(SC)nc2C)c1`, with more than 43.4 µg/mL; and `COc1ccccc1CNC(=O)COC(=O)c1cccs1`, with 8.4 µg/mL (≈ 27.5 µM); and `Br.N#Cc1ccc(CSC2=NCCN2)cc1`, with more than 44.7 µg/mL. Then `NC(=O)CS(=O)(=O)c1nc2ccccc2n1Cc1ccccn1`, with more than 49.6 µg/mL; and `CN(C)CC1CCCCC1=O.Cl` (centres undefined), with more than 28.8 µg/mL; and `O=C(CN1CCOCC1)NNC(=O)c1ccc([N+](=O)[O-])cc1`, with more than 46.2 µg/mL.

Compound `COc1cc(/C=C2\N=C(C)OC2=O)cc(OC)c1OC` registered a kinetic solubility of 25.3 µg/mL (≈ 91.2 µM). Under `COc1ccc(NC(=O)NCc2cccnc2)cc1` stands more than 38.6 µg/mL; under `Cc1ccc(Cl)c(OCC(=O)N2CCc3ccccc3C2)c1`, 6.2 µg/mL (≈ 19.6 µM). Then `O=C(COC(=O)CNC(=O)C1CCCCC1)Nc1cccc(F)c1`, with more than 50.5 µg/mL; and `Cc1ccc(C(=O)N[C@H](C(=O)NC2CCCCC2)C(C)C)cc1`, with 8 µg/mL (≈ 25.3 µM). Under `CCOC(=O)c1c(CCl)nc2ccccc2c1C.Cl` stands 30.4 µg/mL; under `CCOC(=O)COc1nc(-c2ccccc2)cc(-c2ccco2)c1C#N`, less than 0.4 µg/mL. `CCNCC(=O)Nc1c(C)cccc1C` registered a kinetic solubility of 25.2 µg/mL (≈ 122 µM). Consider `Cc1ccc(C(C)C)cc1S(=O)(=O)NCc1ccccn1`, for which the solubility (kinetic) is more than 45.7 µg/mL. Under `COc1ccc(CN2CCN(CC3CC3)CC2CCO)cc1C` (centres undefined) stands more than 47.8 µg/mL; under `Cc1csc(NC(=O)CSc2[nH]c(=O)ncc2C)n1`, more than 44.5 µg/mL; under `O=C(Nc1ccc(Cl)cc1)N1CCN(c2ncccn2)CC1`, 44.4 µg/mL (≈ 140 µM).

The record behind these values is PubChem BioAssay AID1996.
